Results on 5 compounds are retold here after patent US11964990B2, “1,3,4,7-tetrahydro-2H-pyrrolo[3′,2′:5,6]pyrido[2,3-b][1,4]oxazepine bcl-2 inhibitors” (AbbVie Inc., priority 2022, dated 2024).

Structures are written as SMILES.

One test concerns RS4;11 cells. As to the kind of experiment: Cell viability assay (CellTiter-Glo) in RS4;11 cell line. The class given is cell-based. The note with it: 24 hours, 10% Human Serum, 50% decrease in cell viability. The text has this:
(§1) The acute lymphoblastic leukemia (ALL) human cell line RS4;11 (ATCC, Manassas VA) was used as the primary human cell line to assess the cellular activity of compound of the present Examples in vitro and their efficacy in vivo. BH3 profiling, a mitochondrial assay that classifies blocks in the intrinsic apoptotic pathway, has shown that RS4;11 cells were highly dependent on Bcl-2 protein for survival and were sensitive to a Bcl-2 inhibitor (Blood. 2008; 111(4):2300-2309). […] The acute lymphoblastic leukemia cell line Molt-4, which is derived from immature T-lymphoid cells (T-ALL), was used as a counter screen assay.
(§2) Frozen RS4;11 or Molt-4 cells (ATCC, Manassas, VA, USA) were thawed overnight in RPMI 1640 media (Thermo Fisher Scientific, Waltham, MA, USA) supplemented with 1% penicillin/streptomycin (Thermo Fisher Scientific, Waltham, MA, USA), and 10% Human Serum (Sigma, St. Louis, MO, USA). 3000 Cells (0.1×10^6/mL) were seeded in each well of 384-well plate and were treated for 24 hours in a humidified chamber with 5% CO2. Cell viability was determined by CellTiter-Glo as described by the manufacturer's instructions (Promega Corporation, Madison, WI, USA). Responses were determined as a percentage of the control treated cells and the effective concentration (EC50) to induce a 50% decrease in cell viability were determined from sigmoidal dose-response curves using Dotmatics (Dotmatics Software Company, Bishops Stortford, Hertfordshire, England).
For orientation: In ATP-based viability assays light output follows the ATP content of the culture.

Another test relates to Molt-4 cells. As to the kind of experiment: Cell viability counter screen assay (CellTiter-Glo) in Molt-4 cells. Format: cell-based. Conditions: 24 hours, 10% Human Serum, 50% decrease in cell viability.
Excerpt: as §1, §2
On the technique in general: The purpose of a counterscreen is to sort out artefacts and off-target activity.

Consider `CC1(C)CC(c2ccc(Cl)cc2)=C2CN3CCN(c4ccc(C(=O)NS(=O)(=O)c5ccc(NCC6CCOCC6)c([N+](=O)[O-])c5)c(N5CCCOc6nc7[nH]ccc7cc65)c4)C[C@H]3COCCCO[C@@H]2C1` [Example 1, 4-((4aS,10aR)-14-(4-chlorophenyl)-12,12-dimethyl-1,2,4a,5,8,9,10a,11,13,15-decahydro-7H,12H-benzo[f]pyrazino[2,1-c][1,8]dioxa[4]azacycloundecin-3(4H)-yl)-2-(3,4-dihydro-2H-pyrrolo[3′,2′:5,6]pyrido[2,3-b][1,4]oxazepin-1(7H)-yl)-N-((3-nitro-4-(((tetrahydro-2H-pyran-4-yl)methyl)amino)phenyl)sulfonyl)benzamide], for which the EC50 with RS4;11 cells is 4.01 nM; in the test on Molt-4 cells, over 10000 nM.
As for `CC1(C)CC(c2ccc(Cl)cc2)=C2CN3CCN(c4ccc(C(=O)NS(=O)(=O)c5ccc(NC[C@H]6CC[C@](C)(O)CO6)c([N+](=O)[O-])c5)c(N5CCCOc6nc7[nH]ccc7cc65)c4)C[C@H]3COCCCO[C@@H]2C1` [Example 2, 4-((4aS,10aR)-14-(4-chlorophenyl)-12,12-dimethyl-1,2,4a,5,8,9,10a,11,13,15-decahydro-7H,12H-benzo[f]pyrazino[2,1-c][1,8]dioxa[4]azacycloundecin-3(4H)-yl)-2-(3,4-dihydro-2H-pyrrolo[3′,2′:5,6]pyrido[2,3-h][1,4]oxazepin-1(7H)-yl)-N-((4-((((2R,5S)-5-hydroxy-5-methyltetrahydro-2H-pyran-2-yl)methyl)amino)-3-nitrophenyl)sulfonyl)benzamide], the values for the half-maximal effective concentration (EC50) with RS4;11 cells and with Molt-4 cells were 0.651 nM and 1220 nM, respectively.
Consider `CC1(C)CC(c2ccc(Cl)cc2)=C2CN3CCN(c4ccc(C(=O)NS(=O)(=O)c5ccc(NC[C@H]6COCCO6)c([N+](=O)[O-])c5)c(N5CCCOc6nc7[nH]ccc7cc65)c4)C[C@H]3COCCCO[C@@H]2C1` [Example 3, N-((4-((((S)-1,4-dioxan-2-yl)methyl)amino)-3-nitrophenyl)sulfonyl)-4-((4aS,10aR)-14-(4-chlorophenyl)-12,12-dimethyl-1,2,4a,5,8,9,10a,11,13,15-decahydro-7H,12H-benzo[f]pyrazino[2,1-c][1,8]dioxa[4]azacycloundecin-3(4H)-yl)-2-(3,4-dihydro-2H-pyrrolo[3′,2′:5,6]pyrido[2,3-b][1,4]oxazepin-1(7H)-yl)benzamide], for which the EC50 in the test on RS4;11 cells turned out to be 1.36 nM; in the test with Molt-4 cells, 1410 nM.
Turning to `CC1(C)CC(c2ccc(Cl)cc2)=C2CN3CCN(c4ccc(C(=O)NS(=O)(=O)c5cnc(OCC6(F)CCN(C7COC7)CC6)c(Cl)c5)c(N5CCCOc6nc7[nH]ccc7cc65)c4)C[C@H]3COCCCO[C@@H]2C1` [Example 4, N-((5-chloro-6-((4-fluoro-1-(oxetan-3-yl)piperidin-4-yl)methoxy)pyridin-3-yl)sulfonyl)-4-((4aS,10aR)-14-(4-chlorophenyl)-12,12-dimethyl-1,2,4a,5,8,9,10a,11,13,15-decahydro-7H,12H-benzo[f]pyrazino[2,1-c][1,8]dioxa[4]azacycloundecin-3(4H)-yl)-2-(3,4-dihydro-2H-pyrrolo[3′,2′:5,6]pyrido[2,3-b][1,4]oxazepin-1(7H)-yl)benzamide], the EC50 in the test on RS4;11 cells worked out at 2.35 nM; in the test on Molt-4 cells, 2000 nM.
Take `CO[C@H]1CC[C@H](CNc2ccc(S(=O)(=O)NC(=O)c3ccc(N4CCN5CC6=C(c7ccc(Cl)cc7)CC(C)(C)C[C@H]6OCCCOC[C@@H]5C4)cc3N3CCCOc4nc5[nH]ccc5cc43)cc2[N+](=O)[O-])CC1` [Example 5, 4-((4aS,10aR)-14-(4-chlorophenyl)-12,12-dimethyl-1,2,4a,5,8,9,10a,11,13,15-decahydro-7H,12H-benzo[f]pyrazino[2,1-c][1,8]dioxa[4]azacycloundecin-3(4H)-yl)-2-(3,4-dihydro-2H-pyrrolo[3′,2′:5,6]pyrido[2,3-b][1,4]oxazepin-1(7H)-yl)-N-((4-((((1r,4r)-4-methoxycyclohexyl)methyl)amino)-3-nitrophenyl)sulfonyl)benzamide]: the values for the EC50 with RS4;11 cells and with Molt-4 cells were 7.11 nM and 4460 nM, respectively.

Broadly, the EC50 is the concentration needed to bring the measured effect to its halfway point. Read a low EC50 as higher potency in that assay.
